Columns and labels:
[1] = tested on: hepatitis B virus (HBV); assay: Mouse model of HBV (pHBV1.3 hydrodynamic injection), serum HBV DNA quantitative PCR; format: in vivo, NOD.CB17-Prkdc^scid/J mice
Description: On Day −7, 10 micrograms of the plasmid pHBV1.3 (as per Guidotti, L., et al., Journal of Virology, 1995, 69(10): 6158-6169) was administered to NOD.CB17-Prkdc^scid/J mice via hydrodynamic injection (HDI; rapid 1.6 mL injection into the tail vein). […] As a readout of the anti-HBV effect of various treatments, serum HBV DNA concentration in mice was measured from total extracted DNA using a quantitative PCR assay (primer/probe sequences from Tanaka, Y., et al., Journal of Medical Virology, 2004, 72: 223-229).
Animals were treated with Compound 3 as follows: Starting on Day 0, a 50 mg/kg or 100 mg/kg dosage of Compound 3 was administered orally to animals on a twice-daily frequency for a total of fourteen doses between Days 0 and 7. Compound 3 was dissolved in a co-solvent formulation for administration. Negative control animals were administered either the co-solvent formulation alone, or saline. Animals were treated with lipid nanoparticle (LNP)-encapsulated HBV-targeting siRNAs as follows: On Day 0, an amount of test article equivalent to 0.1 mg/kg siRNA was administered intravenously.
The effect of these treatments was determined by collecting blood on Days 0 (pre-treatment), 4 & 7 and analyzing it for serum HBV DNA content.
Animals were treated with Compound 3 as follows: Starting on Day 0, a 100 mg/kg dosage of Compound 3 was administered orally to animals on a twice-daily frequency for a total of fourteen doses between Days 0 and 7. Compound 3 was dissolved in a co-solvent formulation for administration. Negative control animals were administered either the co-solvent formulation alone, or saline. Animals were treated with ETV as follows: Starting on Day 0, either a 100 ng/kg or a 300 ng/kg dosage of ETV was administered orally to animals on a once-daily frequency for a total of seven doses between Days 0 and 6. ETV was dissolved in DMSO to 2 mg/mL and then diluted in saline for administration.
The effect of these treatments was determined by collecting blood on Days 0 (pre-treatment), 4 & 7 and analyzing it for serum HBV DNA content. Samples with Ct values below the lower limit of quantitation (LLOQ) were set to one-half LLOQ for calculation of group means.

[2] = tested on: HBV cccDNA-dependent precore RNA in DESHAe82 cells; assay: DESHAe82 / DE19 cell culture system, cccDNA-derived precore RNA by qRT-PCR, MacSynergy II; format: cell-based, Hepatitis B virus; settings: ETV μM: 0.01, 0.0032, 0.001, 0.0003, 0.0001, 3E−05, 0
Description: In vitro combination studies were conducted using a modification of the assay system described in Cai et al (Antimicrobial Agents Chemotherapy, 2012. Vol 56(8):4277-88). A previously developed HepDE19 cell culture system (Guo et al. J. Virology (2007) 81(22): 12472-12484) supports HBV DNA replication and cccDNA formation in a tetracycline (Tet)-regulated manner, and produces a detectable reporter molecule which is dependent upon the production and maintenance of cccDNA.
In the HepDE19 cell culture system, the reporters are the precore RNA and its cognate protein product, the secreted HBV “e antigen” (HBeAg). In HepDE19 cells, precore RNA and HBeAg are only produced from the cccDNA circular template, because the ORF of HBeAg and its 5′ RNA leader are separated between the opposite ends of the integrated viral genome, and only become contiguous with the formation of cccDNA. Although an assay based on the HepDE19 cell culture system is effective for determining activity, the results of high throughput screening may be complicated because the HBeAg ELISA cross reacts with a viral HBeAg homologue, which is the core antigen (HBcAg) expressed largely in a cccDNA-independent fashion in HepDE19 cells. To overcome this complication, an alternative cell culture system (designated herein as DESHAe82 cell culture system and described in PCT/EP/2015/06838) has been developed which includes an in-frame HA epitope tag in the N-terminal coding sequence of HBeAg in the transgene of DESHAe82 cells, without disrupting any cis-element critical for HBV replication, cccDNA transcription, and HBeAg secretion.
A chemiluminescence ELISA assay (CLIA) for the detection of HA-tagged HBeAg with HA antibody serving as capture antibody and […] has been developed, eliminating the contaminating signal from HBcAg. […] In addition, a protocol for quantitative reverse transcription and polymerase chain reaction (qRT-PCR) that is specific for detection of precore RNA in either DE19 or DESHAe82 cells was developed and is also used for the detection of the cccDNA-dependent mRNA (precore RNA) that is translated to produce HBeAg or HA-HBeAg.
To test the compound combinations, DESHAe82 or DE19 cells (as indicated in examples) were plated in 96 well tissue-culture treated microtiter plates in DMEM/F12 medium supplemented with 10% fetal bovine serum+1% penicillin-streptomycin with Tet, and incubated in a humidified incubator at 37° C. and 5% CO2 overnight. […] The two inhibitors were tested both singly as well as in combinations in a checkerboard fashion such that each test concentration of inhibitor A was combined with each test concentration of inhibitor B to determine their combination effects on inhibition of cccDNA formation and expression. Untreated negative control samples (0.5% DMSO or media only) were included on each plate in multiple wells. Following a 9 day-incubation, media was removed and cells were subjected to RNA extraction to measure the cccDNA-dependent precore mRNA level. Total cellular RNAs were extracted using a 96-well format total RNA isolation kit ([…]-NAGEL, Cat. 740466.4) by following the instruction of manufacturer (vacuum manifold processing, two more extra washes of Buffer RA4). RNA samples were eluted in RNAase-free water. Quantitative real-time RT-PCR was performed with a Roche LightCycler480 and RNA Master Hydrolysis probe (Catalog number 04991885001, Roche) using primers and conditions for specific detection of cccDNA-dependent precore RNA. GAPDH mRNA levels were also detected by standard methods and used to normalize the precore RNA levels.

Structure (SMILES)	Serum HBV DNA, % of individual pre-treatment baseline (Day 0) ([1]; Example 2, Day 4, Compound 3 50 mg/kg oral twice daily, mean ± SEM)	Serum HBV DNA, % of individual pre-treatment baseline (Day 0) ([1]; Example 2, Day 4, Compound 3 100 mg/kg oral twice daily)	Serum HBV DNA, % of individual pre-treatment baseline (Day 0) ([1]; Example 2, Day 7, Compound 3 50 mg/kg oral twice daily)	Serum HBV DNA, % of individual pre-treatment baseline (Day 0) ([1]; Example 2, Day 7, Compound 3 100 mg/kg oral twice daily)	Serum HBV DNA, % of individual pre-treatment baseline (Day 0) ([1]; Example 3, Day 4, Compound 3 100 mg/kg oral twice daily, mean ± SEM)	Serum HBV DNA, % of individual pre-treatment baseline (Day 0) ([1]; Example 3, Day 7, Compound 3 100 mg/kg oral twice daily)	Average percent inhibition versus negative control (precore RNA) ([2]; Compound 3 0.032 μM)	Average percent inhibition versus negative control (precore RNA) ([2]; Compound 3 0.100 μM)	Average percent inhibition versus negative control (precore RNA) ([2]; Compound 3 0.317 μM)	Average percent inhibition versus negative control (precore RNA) ([2]; Compound 3 1.001 μM)	Average percent inhibition versus negative control (precore RNA) ([2]; Compound 3 3.165 μM)	Average percent inhibition versus negative control (precore RNA) ([2]; Compound 3 10 μM)	Serum HBV DNA, % of individual pre-treatment baseline (Day 0) ([1]; Example 3, Day 4, ETV 100 ng/kg oral once daily)	Serum HBV DNA, % of individual pre-treatment baseline (Day 0) ([1]; Example 3, Day 4, ETV 300 ng/kg oral once daily)	Serum HBV DNA, % of individual pre-treatment baseline (Day 0) ([1]; Example 3, Day 7, ETV 100 ng/kg oral once daily)	Serum HBV DNA, % of individual pre-treatment baseline (Day 0) ([1]; Example 3, Day 7, ETV 300 ng/kg oral once daily)
CC[C@@H](C)NS(=O)(=O)c1ccc(F)c(C(=O)Nc2ccc(F)c(F)c2)c1 [Compound 3]	13 ± 4%	8.6 ± 1.5%	33 ± 9%	12 ± 5%	9.3 ± 2.5%	1.2 ± 0.3%	−26.280%	−86.920%	36.240%	67.120%	90.600%	84.340%	–	–	–	–
C=C1[C@H](CO)[C@@H](O)C[C@@H]1n1cnc2c(=O)[nH]c(N)nc21 [Entecavir]	–	–	–	–	–	–	–	–	–	–	–	–	21 ± 5%	1.6 ± 0.3%	3.5 ± 0.7%	0.88 ± 0.31%
